Measured values as given in patent US20260365990A1, “METHOD FOR THE PRESERVATION OF FUNCTIONAL GAMETES” (Julius-Maximilians-Universität Würzburg, in Vertretung des …, priority 2022, published 2026).
Entries after “also recorded” stand apart in the source; their conditions may differ.

Tests used:
[1] = test system: spermatozoa; assay: Static oxidation-reduction potential (sORP) of human sperm samples by MiOXSYS; assay type: cell-based; details: for Change in oxidation-reduction potential (sORP, ratio treated/untreated): mean±SD; for Oxidation-reduction potential, samples 42_1 and 38_7 (in words): samples with drastically elevated untreated values, FIGS. 7D and 8D
Procedure: (§1) Between 1.46 mL and 5.7 mL human semen/spermatozoa were collected from healthy males of between 25 and 50 years of age in 100 mL sample vials on site. Samples were then divided into two equal fractions each for subsequent incubation with CO (wCO) and without CO (woCO). In order to estimate the spermatozoa concentration in the samples and to establish an initial baseline for each sample, a routine spermiogram was performed before samples were transferred to gas-tight 15 mL Falcon tubes. Samples were incubated at 25-35 °C for 90 minutes with and without an activated CORS system in a closed container. During this incubation period liquefaction took place naturally. The samples were then analyzed for total motility, progressive motility, static oxidation-reduction potential, and for DNA fragmentation. Total motility, progressive motility and concentration of the samples were assessed using a CEROS II (Hamilton Thorne, Beverly, MA) computer assisted sperm analysis (CASA) system. 6 μL of a sperm sample diluted 1:1 with Multipurpose Handling Medium-Complete (MHM-C, FujiFilm/IrvineScientific, Santa Ana, CA) was measured and the concentration and level of mobility (total and progressive motility) was assessed.
A Male Infertility Oxidative System (MiOXSYS, Englewood, CO) was used to determine static oxidation-reduction potential (sORP) levels. 30 μL of the sperm samples were transferred to the sample application port on a MiOXSYS sensor and analyzed for 2 minutes.
(§2) In this example, sperm samples were treated with either one, three, or six CORS capsules, each loaded with 5 mg Mo-CORM (corresponds to 0.44 mL CO) for 60 to 270 mins, or left untreated for the same amount of time.
(§3) Human sperm was collected from healthy volunteers in 100 ml specimen containers. Afterwards, the ejaculate was split into equal parts and filled into 15 mL gas tight falcon tubes, with one of the samples being exposed to one or more activated CORS. Then, both samples were analyzed for motility parameters via computer assisted sperm analysis (CASA), the static oxidation-reduction potential (sORP) via MiOXSYS and sperm DNA-fragmentation (SDF) via dispersion test with Halosperm G2 Kit after a predetermined time.
An oxidative male infertility measuring System (MiOXSYS, Englewood, CO) was used to determine static oxidation-reduction potential (SORP) levels following manufacturer's specifications. 30 μL of sample were transferred to the sample application port onto a MiOXSYS sensor and analyzed for 2 minutes. The results were expressed in milli Volt (mV) and normalized to the seminal sperm concentration (mV/106 sperm/mL).

[2] = test system: spermatozoa; assay: Sperm DNA fragmentation (SDF) by dispersion test, Halosperm G2 Kit; assay type: cell-based, human; details: for DNA-fragmentation change (SDF, ratio treated/untreated): mean±SD
Procedure: as §1
To determine DNA fragmentation a count-based microscopy assay was performed. For this spermatozoa samples were diluted using MHM-C (Multipurpose Handling Medium-Complete, FujiFilm, IrvineScientific) to a maximum of 20×E6 spermatozoa per mL and analyzed using a Halo Sperm G2 Kit (Halotech, Madrid, Spain). Samples were mixed with the prepared agarose according to manufacturer instructions. 8 μL of the resulting mixture was then put on microscopy slides and cooled down for 5 minutes by removing the heat source. The prepared samples were further treated according to the manufacturer's instructions: denaturant for 7 minutes, lysis solution for 20 minutes, distilled water for 5 minutes, 70% ethanol for 2 minutes, 100% ethanol for 2 minutes, eosin staining solution for 7-10 minutes, and thiazine staining solution for 7-10 minutes. At least 300 spermatozoa were then analyzed using a bright field microscope.
as §2, §3
Sperm DNA fragmentation (SDF) was assessed via dispersion test using a Halosperm G2 Kit (From Halotech, Madrid, Spain) following manufacturer's specifications. In brief, the samples were diluted to a maximum of 20 mio/mL. The samples were, then, mixed with the prepared agarose. 8 μL of the mixture was transferred on slides and cooled down for 5 minutes. Different reagents were added and discarded after the set time: Denaturant agent was added for 7 minutes, lysis solution for 20 minutes, distilled water for 5 minutes, 70% ethanol for 2 minutes, 100% ethanol for 2 minutes, eosin staining solution for 7-10 minutes, and thiazine staining solution for 7-10 minutes. A minimum of 400 sperms were analyzed using an Olympus IX73 Inverted LED Fluorescence Microscope.

[3] = test system: spermatozoa; assay: Computer assisted sperm analysis (CASA, CEROS II) of human spermatozoa treated with CO vs. without CO: total motility, progressive motility, average path velocity (VAP); assay type: cell-based; details: for Change in progressive motility (ratio treated/untreated) / Change of VAP (ratio treated/untreated) / Change in motility (ratio treated/untreated) / Change in velocity of the sperm cells (VAP, ratio treated/untreated): mean±SD
Procedure: as §1, §2, §3
Total motility, progressive motility, VAP, and concentration of the samples were tested using a CEROS II (Hamilton Thorne, Beverly, MA) computer assisted sperm analysis (CASA) system. 6 μL of a sperm sample diluted 1:1 with Multipurpose Handling Medium-Complete (MHM-C, Fuji Film/Irvine Scientific, Santa Ana, CA) was investigated with the CASA system, and the level of mobility was assessed.

[4] = 0.44 mL CO (5 mg Mo-CORM), 90 min
[5] = 1.32 mL CO (15 mg Mo-CORM), 60 min
[6] = 1.32 mL CO (15 mg Mo-CORM), 90 min
[7] = 1.32 mL CO (15 mg Mo-CORM), 180 min
[8] = 1.32 mL CO (15 mg Mo-CORM), 270 min
[9] = 2.64 mL CO (30 mg Mo-CORM), 90 min
[10] = Example 3, 60 min and 90 min, 0.44 mL and 1.32 mL CO
[11] = Example 3, up to 90 min, 0.44-2.64 mL CO

## [C-]#[O+] [CO, carbon monoxide]
[1]; [4]
  Change in oxidation-reduction potential (sORP, ratio treated/untreated): 0.89±0.17 fold
[1]; [5]
  Change in oxidation-reduction potential (sORP, ratio treated/untreated): 0.57±0.35 fold
[1]; [6]
  Change in oxidation-reduction potential (sORP, ratio treated/untreated): 0.91±0.12 fold
[1]; [7]
  Change in oxidation-reduction potential (sORP, ratio treated/untreated): 1.02±0.32 fold
[1]; [8]
  Change in oxidation-reduction potential (sORP, ratio treated/untreated): 1.13±0.28 fold
[1]; [9]
  Change in oxidation-reduction potential (sORP, ratio treated/untreated): 0.59±0.24 fold
[1]; 60 min and 90 min, 15 mg CORM, FIG. 9
  Correlation of CO effect on sORP with untreated sORP (in words): particularly effective in subjects that suffer from high sperm oxidation-reduction potential
[1]; Example 2, 15 mg Mo-CORM, 90 min, 25-35 °C, 6 subjects, FIG. 2
  Relative oxidation-reduction potential wCO/woCO (in words): show a trend to be lower in the samples that were contacted with CO; also recorded: a reduction in oxidative stress/ROS
[1]; [10]
  Oxidation-reduction potential vs untreated (in words): reduced
[1]
  Oxidation-reduction potential, samples 42_1 and 38_7 (in words): strong reduction
[1]; listed as carbon monoxide
  Oxidation-reduction potential, samples 42_1 and 38_7 (in words): reduced oxidation-reduction potential
[2]; [4]
  DNA-fragmentation change (SDF, ratio treated/untreated): 0.83±0.09 fold
[2]; [5]
  DNA-fragmentation change (SDF, ratio treated/untreated): 0.77±0.07 fold
[2]; [6]
  DNA-fragmentation change (SDF, ratio treated/untreated): 0.67±0.24 fold
[2]; [7]
  DNA-fragmentation change (SDF, ratio treated/untreated): 0.90±0.11 fold
[2]; [8]
  DNA-fragmentation change (SDF, ratio treated/untreated): 0.90±0.19 fold
[2]; [9]
  DNA-fragmentation change (SDF, ratio treated/untreated): 1.31±0.55 fold
[2]; 60 min and 90 min, 15 mg CORM, FIG. 10
  Correlation of CO effect on SDF with untreated SDF (in words): particularly effective in subjects that suffer from high sperm oxidation-reduction potential and/or DNA-fragmentation
[2]; Example 2, 15 mg Mo-CORM, 90 min, 25-35 °C, 3 subjects, FIG. 3
  Relative DNA fragmentation wCO/woCO (in words): DNA fragmentation is reduced in samples that were contacted with CO; also recorded: a reduction in DNA fragmentation
[2]; Example 2, FIG. 3, treated vs untreated aliquots of same donor
  DNA fragmentation, subjects 3 and 4 (in words): less DNA fragmentation
[2]; [10]
  Spermatozoan DNA-fragmentation (SDF) vs untreated (in words): reduced
[2]; samples with drastically elevated untreated values, FIGS. 7E and 8E
  DNA fragmentation, samples 42_1 and 38_7 (in words): strong reduction
[3]; [4]
  Change in progressive motility (ratio treated/untreated): 0.97±0.12 fold
  Change of VAP (ratio treated/untreated): 1.01±0.08 fold
[3]; 0.44 mL CO (5 mg Mo-CORM, one CORS), 90 min
  Change in motility (ratio treated/untreated): 0.98±0.12 fold
[3]; [5]
  Change in progressive motility (ratio treated/untreated): 0.85±0.13 fold
  Change in velocity of the sperm cells (VAP, ratio treated/untreated): 0.94±0.09 fold
[3]; [6]
  Change in motility (ratio treated/untreated): 0.99±0.03 fold
  Change in progressive motility (ratio treated/untreated): 0.92±0.17 fold
  Change in velocity of the sperm cells (VAP, ratio treated/untreated): 0.96±0.04 fold
[3]; [7]
  Change in motility (ratio treated/untreated): 1.16±0.37 fold
  Change in progressive motility (ratio treated/untreated): 0.72±0.19 fold
  Change in velocity of the sperm cells (VAP, ratio treated/untreated): 0.79±0.13 fold
[3]; [8]
  Change in motility (ratio treated/untreated): 0.94±0.20 fold
  Change in progressive motility (ratio treated/untreated): 1.04±0.48 fold
  Change in velocity of the sperm cells (VAP, ratio treated/untreated): 0.97±0.08 fold
[3]; 1.32 mL CO (15 mg Mo-CORM, three CORS), 60 min
  Change in motility (ratio treated/untreated): 1.13±0.41 fold
[3]; [9]
  Change in progressive motility (ratio treated/untreated): 0.88±0.10 fold
  Change of VAP (ratio treated/untreated): 1.03±0.03 fold
[3]; 2.64 mL CO (30 mg Mo-CORM, six CORS), 90 min
  Change in motility (ratio treated/untreated): 0.90±0.12 fold
[3]; Example 2, 15 mg Mo-CORM, 90 min, 25-35 °C, 5 subjects, FIG. 4A
  Relative total motility wCO/woCO (in words): no differences between samples that were contacted with CO (wCO) and without CO (woCO)
[3]; Example 2, 15 mg Mo-CORM, 90 min, 25-35 °C, 5 subjects, FIG. 4B, exception subject 6
  Relative progressive motility wCO/woCO (in words): progressive motility is increased for wCO as compared to woCO; also recorded: an improvement of progressive motility
[3]; Example 3, 60 min or 90 min, 0.44 mL or 1.32 mL CO
  Effect on spermatozoan motility (in words): no negative effects on spermatozoan motility
[3]; [11]
  Effect on progressive motility vs untreated (in words): did not impair sperm motility, progressive motility
  Effect on sperm motility vs untreated (in words): did not impair sperm motility
  Effect on velocity vs untreated (in words): did not impair sperm motility, progressive motility, and velocity
